In brackets after ≈: the same amount, converted by molar mass.
Legend:
Format in all cases: functional
Klebsiella pneumoniae = test: Antibacterial activity against Klebsiella pneumoniae 46101 after 24 hrs by agar dilution method
Staphylococcus aureus = test: Antibacterial activity against Staphylococcus aureus 26003 after 24 hrs by agar dilution method
Salmonella = test: Antibacterial activity against […] 48107 after 24 hrs by agar dilution method
Streptococcus pneumoniae = test: Antibacterial activity against Streptococcus pneumoniae 31002 after 24 hrs by agar dilution method
Shigella boydii = test: Antibacterial activity against Shigella boydii 51313 after 24 hrs by agar dilution method
[1] = system: Staphylococcus epidermidis; test: Antibacterial activity against Staphylococcus epidermidis 26069 after 24 hrs by agar dilution method

CC(C)NCc1c(F)cc2c(=O)c(C(=O)O)cn3c2c1OC[C@@H]3C
MIC (Klebsiella pneumoniae): 0.195 µg/mL (≈ 0.583 µM) | MIC (Staphylococcus aureus): > 6.25 µg/mL | MIC (Salmonella): 0.39 µg/mL (≈ 1.17 µM) | MIC (Streptococcus pneumoniae): 3.13 µg/mL (≈ 9.36 µM) | MIC (Shigella boydii): 0.39 µg/mL (≈ 1.17 µM) | MIC [1]: > 6.25 µg/mL

C[C@H]1COc2c(CNC3CC3)c(F)cc3c(=O)c(C(=O)O)cn1c23
MIC (Klebsiella pneumoniae): 0.049 µg/mL (≈ 0.147 µM) | MIC (Staphylococcus aureus): 3.13 µg/mL (≈ 9.42 µM) | MIC (Salmonella): 0.049 µg/mL (≈ 0.147 µM) | MIC (Streptococcus pneumoniae): 0.39 µg/mL (≈ 1.17 µM) | MIC (Shigella boydii): 0.049 µg/mL (≈ 0.147 µM) | MIC [1]: > 6.25 µg/mL

C[C@H]1COc2c(CN3CCCC3)c(F)cc3c(=O)c(C(=O)O)cn1c23
MIC (Klebsiella pneumoniae): 0.049 µg/mL (≈ 0.141 µM) | MIC (Staphylococcus aureus): 6.25 µg/mL (≈ 18 µM) | MIC (Salmonella): 0.098 µg/mL (≈ 0.283 µM) | MIC (Streptococcus pneumoniae): 0.78 µg/mL (≈ 2.25 µM) | MIC (Shigella boydii): 0.39 µg/mL (≈ 1.13 µM) | MIC [1]: > 6.25 µg/mL

C[C@H]1COc2c(CN3CCCCC3)c(F)cc3c(=O)c(C(=O)O)cn1c23
MIC (Klebsiella pneumoniae): 0.195 µg/mL (≈ 0.541 µM) | MIC (Staphylococcus aureus): > 6.25 µg/mL | MIC (Salmonella): 0.39 µg/mL (≈ 1.08 µM) | MIC (Streptococcus pneumoniae): 1.56 µg/mL (≈ 4.33 µM) | MIC (Shigella boydii): 0.78 µg/mL (≈ 2.16 µM) | MIC [1]: > 6.25 µg/mL

C[C@H]1COc2c(CN3CCNCC3)c(F)cc3c(=O)c(C(=O)O)cn1c23
MIC (Klebsiella pneumoniae): 3.13 µg/mL (≈ 8.66 µM) | MIC (Staphylococcus aureus): > 6.25 µg/mL | MIC (Salmonella): > 6.25 µg/mL | MIC (Streptococcus pneumoniae): > 6.25 µg/mL | MIC (Shigella boydii): > 6.25 µg/mL | MIC [1]: > 6.25 µg/mL

C[C@H]1COc2c(CN3CCN(C)CC3)c(F)cc3c(=O)c(C(=O)O)cn1c23
MIC (Klebsiella pneumoniae): 0.78 µg/mL (≈ 2.08 µM) | MIC (Staphylococcus aureus): > 6.25 µg/mL | MIC (Salmonella): 1.56 µg/mL (≈ 4.16 µM) | MIC (Streptococcus pneumoniae): 1.56 µg/mL (≈ 4.16 µM) | MIC (Shigella boydii): 1.56 µg/mL (≈ 4.16 µM) | MIC [1]: > 6.25 µg/mL

C[C@H]1COc2c(CNc3ccccc3)c(F)cc3c(=O)c(C(=O)O)cn1c23
MIC (Klebsiella pneumoniae): 0.78 µg/mL (≈ 2.12 µM) | MIC (Staphylococcus aureus): 1.56 µg/mL (≈ 4.23 µM) | MIC (Salmonella): 0.78 µg/mL (≈ 2.12 µM) | MIC (Streptococcus pneumoniae): 0.098 µg/mL (≈ 0.266 µM) | MIC (Shigella boydii): 0.39 µg/mL (≈ 1.06 µM) | MIC [1]: 1.56 µg/mL (≈ 4.23 µM)

C[C@H]1COc2c(CNc3ccc(Cl)cc3)c(F)cc3c(=O)c(C(=O)O)cn1c23
MIC (Klebsiella pneumoniae): 0.195 µg/mL (≈ 0.484 µM) | MIC (Staphylococcus aureus): 0.098 µg/mL (≈ 0.243 µM) | MIC (Salmonella): 0.098 µg/mL (≈ 0.243 µM) | MIC (Streptococcus pneumoniae): ≤ 0.049 µg/mL | MIC (Shigella boydii): 0.195 µg/mL (≈ 0.484 µM) | MIC [1]: 0.098 µg/mL (≈ 0.243 µM)

C[C@H]1COc2c(CNc3cccc(Cl)c3)c(F)cc3c(=O)c(C(=O)O)cn1c23
MIC (Klebsiella pneumoniae): 6.25 µg/mL (≈ 15.5 µM) | MIC (Staphylococcus aureus): 1.56 µg/mL (≈ 3.87 µM) | MIC (Salmonella): 6.25 µg/mL (≈ 15.5 µM) | MIC (Streptococcus pneumoniae): 0.195 µg/mL (≈ 0.484 µM) | MIC (Shigella boydii): 1.56 µg/mL (≈ 3.87 µM) | MIC [1]: 3.13 µg/mL (≈ 7.77 µM)

C[C@H]1COc2c(CNc3ccc(F)cc3)c(F)cc3c(=O)c(C(=O)O)cn1c23
MIC (Klebsiella pneumoniae): 0.78 µg/mL (≈ 2.02 µM) | MIC (Staphylococcus aureus): 0.78 µg/mL (≈ 2.02 µM) | MIC (Salmonella): 0.78 µg/mL (≈ 2.02 µM) | MIC (Streptococcus pneumoniae): 0.049 µg/mL (≈ 0.127 µM) | MIC (Shigella boydii): 0.78 µg/mL (≈ 2.02 µM) | MIC [1]: 0.78 µg/mL (≈ 2.02 µM)

C[C@H]1COc2c(CNc3ccc(F)c(Cl)c3)c(F)cc3c(=O)c(C(=O)O)cn1c23
MIC (Klebsiella pneumoniae): 0.195 µg/mL (≈ 0.463 µM) | MIC (Staphylococcus aureus): 0.098 µg/mL (≈ 0.233 µM) | MIC (Salmonella): 0.39 µg/mL (≈ 0.927 µM) | MIC (Streptococcus pneumoniae): ≤ 0.049 µg/mL | MIC (Shigella boydii): 0.195 µg/mL (≈ 0.463 µM) | MIC [1]: 0.195 µg/mL (≈ 0.463 µM)

Cc1ccc(NCc2c(F)cc3c(=O)c(C(=O)O)cn4c3c2OC[C@@H]4C)cc1
MIC (Klebsiella pneumoniae): 3.13 µg/mL (≈ 8.19 µM) | MIC (Staphylococcus aureus): 0.78 µg/mL (≈ 2.04 µM) | MIC (Salmonella): 1.56 µg/mL (≈ 4.08 µM) | MIC (Streptococcus pneumoniae): 0.098 µg/mL (≈ 0.256 µM) | MIC (Shigella boydii): 0.78 µg/mL (≈ 2.04 µM) | MIC [1]: 3.13 µg/mL (≈ 8.19 µM)

Cc1ccc(NCc2c(F)cc3c(=O)c(C(=O)O)cn4c3c2OC[C@@H]4C)cc1C
MIC (Klebsiella pneumoniae): 6.25 µg/mL (≈ 15.8 µM) | MIC (Staphylococcus aureus): 3.13 µg/mL (≈ 7.9 µM) | MIC (Salmonella): 3.13 µg/mL (≈ 7.9 µM) | MIC (Streptococcus pneumoniae): 0.195 µg/mL (≈ 0.492 µM) | MIC (Shigella boydii): 1.56 µg/mL (≈ 3.94 µM) | MIC [1]: 3.13 µg/mL (≈ 7.9 µM)

Cc1cc(C)nc(NCc2c(F)cc3c(=O)c(C(=O)O)cn4c3c2OC[C@@H]4C)c1
MIC (Klebsiella pneumoniae): 0.39 µg/mL (≈ 0.981 µM) | MIC (Staphylococcus aureus): 0.78 µg/mL (≈ 1.96 µM) | MIC (Salmonella): 0.78 µg/mL (≈ 1.96 µM) | MIC (Streptococcus pneumoniae): 0.195 µg/mL (≈ 0.491 µM) | MIC (Shigella boydii): 0.195 µg/mL (≈ 0.491 µM) | MIC [1]: 0.78 µg/mL (≈ 1.96 µM)

C[C@H]1COc2c(CN(C)c3ccc(F)cc3)c(F)cc3c(=O)c(C(=O)O)cn1c23
MIC (Klebsiella pneumoniae): 1.56 µg/mL (≈ 3.9 µM) | MIC (Staphylococcus aureus): 3.13 µg/mL (≈ 7.82 µM) | MIC (Salmonella): 1.56 µg/mL (≈ 3.9 µM) | MIC (Streptococcus pneumoniae): 0.39 µg/mL (≈ 0.974 µM) | MIC (Shigella boydii): 1.56 µg/mL (≈ 3.9 µM) | MIC [1]: 3.13 µg/mL (≈ 7.82 µM)

CNCc1c(F)cc2c(=O)c(C(=O)O)cn3c2c1OCC3C (stereo not drawn)
MIC (Klebsiella pneumoniae): 0.098 µg/mL (≈ 0.32 µM) | MIC (Staphylococcus aureus): 3.13 µg/mL (≈ 10.2 µM) | MIC (Salmonella): ≤ 0.049 µg/mL | MIC (Streptococcus pneumoniae): 3.13 µg/mL (≈ 10.2 µM) | MIC (Shigella boydii): 0.098 µg/mL (≈ 0.32 µM) | MIC [1]: > 6.25 µg/mL

CC1COc2c(CNC3CC3)c(F)cc3c(=O)c(C(=O)O)cn1c23 (stereo not drawn)
MIC (Klebsiella pneumoniae): ≤ 0.049 µg/mL | MIC (Staphylococcus aureus): 3.13 µg/mL (≈ 9.42 µM) | MIC (Salmonella): ≤ 0.049 µg/mL | MIC (Streptococcus pneumoniae): 0.39 µg/mL (≈ 1.17 µM) | MIC (Shigella boydii): ≤ 0.049 µg/mL | MIC [1]: 3.13 µg/mL (≈ 9.42 µM)

CC1COc2c(CN3CCCC3)c(F)cc3c(=O)c(C(=O)O)cn1c23 (stereo not drawn)
MIC (Klebsiella pneumoniae): 0.195 µg/mL (≈ 0.563 µM) | MIC (Staphylococcus aureus): > 6.25 µg/mL | MIC (Salmonella): 0.39 µg/mL (≈ 1.13 µM) | MIC (Streptococcus pneumoniae): 3.13 µg/mL (≈ 9.04 µM) | MIC (Shigella boydii): 0.39 µg/mL (≈ 1.13 µM) | MIC [1]: > 6.25 µg/mL

CC1COc2c(CN3CCCCC3)c(F)cc3c(=O)c(C(=O)O)cn1c23 (stereo not drawn)
MIC (Klebsiella pneumoniae): 0.39 µg/mL (≈ 1.08 µM) | MIC (Staphylococcus aureus): > 6.25 µg/mL | MIC (Salmonella): 0.78 µg/mL (≈ 2.16 µM) | MIC (Streptococcus pneumoniae): 3.13 µg/mL (≈ 8.69 µM) | MIC (Shigella boydii): 0.098 µg/mL (≈ 0.272 µM) | MIC [1]: > 6.25 µg/mL

CC1COc2c(CNc3ccc(Cl)cc3)c(F)cc3c(=O)c(C(=O)O)cn1c23 (stereo not drawn)
MIC (Klebsiella pneumoniae): > 6.25 µg/mL | MIC (Staphylococcus aureus): 0.195 µg/mL (≈ 0.484 µM) | MIC (Salmonella): 1.56 µg/mL (≈ 3.87 µM) | MIC (Streptococcus pneumoniae): ≤ 0.049 µg/mL | MIC (Shigella boydii): 1.56 µg/mL (≈ 3.87 µM) | MIC [1]: 0.78 µg/mL (≈ 1.94 µM)

CC1COc2c(Cn3ccnc3)c(F)cc3c(=O)c(C(=O)O)cn1c23 (stereo not drawn)
MIC (Klebsiella pneumoniae): 0.195 µg/mL (≈ 0.568 µM) | MIC (Staphylococcus aureus): 3.13 µg/mL (≈ 9.12 µM) | MIC (Salmonella): 0.39 µg/mL (≈ 1.14 µM) | MIC (Streptococcus pneumoniae): 0.78 µg/mL (≈ 2.27 µM) | MIC (Shigella boydii): 0.78 µg/mL (≈ 2.27 µM) | MIC [1]: 3.13 µg/mL (≈ 9.12 µM)

C[C@H]1COc2c(N3CCN(C)CC3)c(F)cc3c(=O)c(C(=O)O)cn1c23.C[C@H]1COc2c(N3CCN(C)CC3)c(F)cc3c(=O)c(C(=O)O)cn1c23.O [LEVOFLOXACIN]
MIC (Klebsiella pneumoniae): 0.098 µg/mL | MIC (Staphylococcus aureus): 0.78 µg/mL | MIC (Salmonella): 0.098 µg/mL | MIC (Streptococcus pneumoniae): 0.195 µg/mL | MIC (Shigella boydii): 0.098 µg/mL | MIC [1]: 0.78 µg/mL

C[C@H]1COc2c(C3(N)CC3)c(F)cc3c(=O)c(C(=O)O)cn1c23 [PAZUFLOXACIN]
MIC (Klebsiella pneumoniae): 0.049 µg/mL (≈ 0.154 µM) | MIC (Staphylococcus aureus): 0.195 µg/mL (≈ 0.613 µM) | MIC (Salmonella): 0.049 µg/mL (≈ 0.154 µM) | MIC (Streptococcus pneumoniae): 0.049 µg/mL (≈ 0.154 µM) | MIC (Shigella boydii): 0.049 µg/mL (≈ 0.154 µM) | MIC [1]: 0.39 µg/mL (≈ 1.23 µM)
